Data: patent US20120302566A1, “INDANYLOXYDIHYDROBENZOFURANYLACETIC ACIDS” (BOEHRINGER INGELHEIM INTERNATIONAL GMBH, priority 2010, published 2012)

Target: human GPR40 receptor (Homo sapiens, UniProt O14842)
Assay: IP1 accumulation measurements using the IPOne assay system
Format: cell-based
Conditions: IP1 accumulation (IPOne HTRF), 1 hour stimulation; 1321N1 cells stably expressing human GPR40; read-out: EC50 values on GPR40 determined as described in (B)
Protocol: (B) IP1 accumulation measurements using the IPOne assay system—1321N1 cells stably expressing human GPR40 receptor (Euroscreen, Belgium) were seeded 24 h before the assay in black clear-bottom collagen-coated 384-well plates in culture medium containing 10% FCS, 1% Na-Pyruvate and 400 μg/mL G418. IP1 is assayed according to the Manufacturer's description (Cisbio Bioassays, France). In brief, the assay is started by substitution of the culture medium by stimulation buffer (Hepes 10 mM, CaCl2 1 mM, MgCl2 0.5 mM, KCl 4.2 mM, NaCl 146 mM and glucose 5.5 mM, pH 7.4) without LiCl. Cells are stimulated for 1 hour at 37°, 10% CO2 by addition of the compounds that were diluted in stimulation buffer containing LiCl yielding a final LiCl concentration of 50 mM. Assays are stopped by adding HTRF-conjugates (IP1-d2 and Anti-IP1 cryptate Tb) and lysis buffer, provided by the manufacturer. After an incubation time of 1 hour at room temperature plates are measured using an EnVision™, Perkin Elmer.

human GPR40 receptor, sequence (O14842 whole entry): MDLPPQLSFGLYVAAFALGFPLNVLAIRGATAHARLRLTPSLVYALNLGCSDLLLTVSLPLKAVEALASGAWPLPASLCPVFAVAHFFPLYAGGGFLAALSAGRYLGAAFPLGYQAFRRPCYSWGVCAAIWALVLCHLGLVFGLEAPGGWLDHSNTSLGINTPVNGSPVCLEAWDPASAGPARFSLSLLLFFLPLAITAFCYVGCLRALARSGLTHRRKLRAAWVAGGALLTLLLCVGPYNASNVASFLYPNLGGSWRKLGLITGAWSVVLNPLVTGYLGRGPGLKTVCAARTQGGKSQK

`CC1(c2cccc3c2CC[C@H]3Oc2ccc3c(c2)OC[C@H]3CC(=O)O)CC1` [Example 87, {(S)-6-[(R)-4-(1-Methyl-cyclopropyl)-indan-1-yloxy]-2,3-dihydro-benzofuran-3-yl}-acetic acid] was tested, and the EC50 was 64 nM.
For `CC(C)c1ccccc1-c1ccc2c(c1)CC[C@H]2Oc1ccc2c(c1)OC[C@H]2CC(=O)O` [Example 54, {(S)-6-[(R)-5-(2-Isopropyl-phenyl)-indan-1-yloxy]-2,3-dihydro-benzofuran-3-yl}-acetic acid], the EC50 was 258 nM.
`O=C(O)C[C@@H]1COc2cc(O[C@@H]3CCc4cccc(C(F)(F)F)c43)ccc21` [Example 23, {(S)-6-[(R)-7-Trifluoromethyl-indan-1-yloxy]-2,3-dihydro-benzofuran-3-yl}-acetic acid] was tested, and the EC50 was 9120 nM.
`Cc1c(O[C@@H]2CCc3c2cccc3C(F)(F)F)ccc2c1OCC2CC(=O)O` (mixture of isomers) [Example 105, {7-Methyl-6-[(R)-4-trifluoromethyl-indan-1-yloxy]-2,3-dihydro-benzofuran-3-yl}-acetic acid] gave an EC50 of 4250 nM.
`CO[C@H](c1cccc2c1CC[C@H]2Oc1ccc2c(c1)OC[C@H]2CC(=O)O)C(C)(C)C` (single isomer, unassigned) [Example 29, {(S)-6-[(R)-4-((S)*-1-Methoxy-2,2-dimethyl-propyl)-indan-1-yloxy]-2,3-dihydro-benzofuran-3-yl}-acetic acid] showed an EC50 of 14 nM.
With `COC(c1cccc2c1CC[C@H]2Oc1ccc2c(c1)OC[C@H]2CC(=O)O)C(C)(C)C` (mixture of isomers) [Example 27, {(S)-6-[(R)-4-(1-Methoxy-2,2-dimethyl-propyl)-indan-1-yloxy]-2,3-dihydro-benzofuran-3-yl}-acetic acid] the EC50 was 23 nM.
`CC(O)(CC1CCOCC1)c1cccc2c1CC[C@H]2Oc1ccc2c(c1)OC[C@H]2CC(=O)O` (stereo partly drawn) [Example 83, ((S)-6-{(R)-4-[1-Hydroxy-1-methyl-2-(tetrahydro-pyran-4-yl)-ethyl]-indan-1-yloxy}-2,3-dihydro-benzofuran-3-yl)-acetic acid] gave an EC50 of 392 nM.
Work on `C=CCCC(C)(O)c1cccc2c1CC[C@H]2Oc1ccc2c(c1)OC[C@H]2CC(=O)O` (stereo partly drawn) [Example 82, {(S)-6-[(R)-4-(1-Hydroxy-1-methyl-pent-4-enyl)-indan-1-yloxy]-2,3-dihydro-benzofuran-3-yl}-acetic acid] yielded an EC50 of 3350 nM.
`CC(C)(O)C(F)(F)c1cccc2c1CC[C@H]2Oc1ccc2c(c1)OC[C@H]2CC(=O)O` [Example 85, {(S)-6-[(R)-4-(1,1-Difluoro-2-hydroxy-2-methyl-propyl)-indan-1-yloxy]-2,3-dihydro-benzofuran-3-yl}-acetic acid] showed an EC50 of 3720 nM.
`COc1ccc(C)c(-c2cccc3c2CC[C@H]3Oc2ccc3c(c2)OC[C@H]3CC(=O)O)c1` [Example 71, {(S)-6-[(R)-4-(5-Methoxy-2-methyl-phenyl)-indan-1-yloxy]-2,3-dihydro-benzofuran-3-yl}-acetic acid] gave an EC50 of 71 nM.
In the case of `O=C(O)C[C@@H]1COc2cc(O[C@@H]3CCc4cc(Cl)ccc43)ccc21` [Example 21, {(S)-6-[(R)-5-Chloro-indan-1-yloxy]-2,3-dihydro-benzofuran-3-yl}-acetic acid], the EC50 is reported as 54 nM.
Work on `CC(C)(C)Cc1cccc2c1CC[C@H]2Oc1ccc2c(c1)OC[C@H]2CC(=O)O` [Example 34, {(S)-6-[(R)-4-(2,2-Dimethyl-propyl)-indan-1-yloxy]-2,3-dihydro-benzofuran-3-yl}-acetic acid] yielded an EC50 of 13 nM.
In the case of `O=C(O)C[C@@H]1COc2cc(O[C@@H]3CCc4c3cccc4N3CCOCC3)ccc21` [Example 65, {(S)-6-[(R)-4-Morpholin-4-yl-indan-1-yloxy]-2,3-dihydro-benzofuran-3-yl}-acetic acid], the EC50 is reported as 1850 nM.
With `Cc1cc2c(c(C(F)(F)F)c1)CC[C@H]2Oc1ccc2c(c1)OC[C@H]2CC(=O)O` [Example 26, {(S)-6-[(R)-6-Methyl-4-trifluoromethyl-indan-1-yloxy]-2,3-dihydro-benzofuran-3-yl}-acetic acid] the EC50 was 19 nM.
